Laboratory results reported in patent publication US11879001B2, “Conjugate comprising an IL-2 moiety” (ASCENDIS PHARMA ONCOLOGY DIVISION A/S, priority 2020, dated 2024).
“And” between values parts separate entries of the source, which are not always exact repeats. Equal entries are not always repeated.

Key:
IL-5 = assay: Serum IL-5 cytokine levels (ELISA or MSD) in treated Cynos; assay type: in vivo, Cynomolgus macaques; details: ~0.044 mg/kg IV x5 daily
Experimental: Two studies were conducted to measure the pharmacodynamic effects of either Aldesleukin (Prometheus, National Drug Code 65483011607) (SEQ ID NO:15) 11 or 5 in Cynos. In the first study, four Cynos ranging in weight from 7.77-10.6 kg (average 9.2 kg) were treated intravenously with five sequential daily 0.4 mg doses of 11 on days 1-5 (average mg/kg: 0.044). In the second study, four Cynos ranging in weight from 2.46-3.69 kg (average 3.13 kg) were treated with a single intravenous dose of either 0.1 mg/kg (n=2) or 0.3 mg/kg (n=2) of 5. All animals were chair trained prior to the study. For both studies, peripheral blood samples were taken before and after treatment at various timepoints as indicated and analyzed for lymphocyte counts, eosinophil counts and cytokines. For animals treated with 5, additional flow cytometry experiments were performed. For measurements of (absolute) lymphocyte counts and eosinophil counts, whole blood was processed on hematology analyzers. For IL-5 and IL-6 cytokine measurements, serum was processed from whole blood and analyzed by ELISA or MSD. […] Cell populations were analyzed using the following phenotypes and gated for percentage of cells which were positive for proliferation marker Ki67.

human IL-2Rα = target: T1, human IL-2Rα (Homo sapiens, UniProt P01589); assay: Biacore binding to human IL-2Rα-Fc; details: independent measurement
T1 construct: purchased
T1 sequence (P01589 22-272): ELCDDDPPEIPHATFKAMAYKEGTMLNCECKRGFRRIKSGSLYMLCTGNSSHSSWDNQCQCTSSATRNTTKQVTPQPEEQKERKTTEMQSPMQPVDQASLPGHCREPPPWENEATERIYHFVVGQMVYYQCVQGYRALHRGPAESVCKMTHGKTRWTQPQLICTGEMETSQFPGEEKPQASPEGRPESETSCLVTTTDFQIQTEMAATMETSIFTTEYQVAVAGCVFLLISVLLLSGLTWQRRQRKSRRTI
Experimental: (§1) Binding affinity/kinetics needed to determine the KD of biased IL-2 to IL-2Rα, the KD of biased IL-2 to IL-2Rβ, the KD of aldesleukin to IL-2Rα and the KD of aldesleukin to IL-2Rβ may be assessed using surface plasmon resonance (SPR), measured on a Biacore instrument (GE Healthcare) as follows: A human Fc capture surface on a CM5 (or alternatively C1 or CM4) chip is prepared by covalent coating with anti-human Fc antibody or alternatively a protein A chip is used. Next, IL-2Rβ-Fc or IL2-Rα-Fc is immobilized on the chip. […] Analytes are each exposed to the receptor-modified chip for a suitable amount of time, such as for 1 to 30 minutes, which may for example be 2 minutes or may be 3 minutes and are then washed away for a suitable amount of time, such as 2 to 60 minutes, which may for example be 10 minutes. The resulting binding curves from the dilution series are fit to a 1:1 kinetic model to correlate observed response units (R) to the association and dissociation rate constants, ka and kd: […]

human IL-2Rβ = target: T2, human IL-2Rβ (Homo sapiens, UniProt P14784); assay: Biacore binding to human IL-2Rβ-Fc
T2 construct: purchased
T2 sequence (P14784 27-551): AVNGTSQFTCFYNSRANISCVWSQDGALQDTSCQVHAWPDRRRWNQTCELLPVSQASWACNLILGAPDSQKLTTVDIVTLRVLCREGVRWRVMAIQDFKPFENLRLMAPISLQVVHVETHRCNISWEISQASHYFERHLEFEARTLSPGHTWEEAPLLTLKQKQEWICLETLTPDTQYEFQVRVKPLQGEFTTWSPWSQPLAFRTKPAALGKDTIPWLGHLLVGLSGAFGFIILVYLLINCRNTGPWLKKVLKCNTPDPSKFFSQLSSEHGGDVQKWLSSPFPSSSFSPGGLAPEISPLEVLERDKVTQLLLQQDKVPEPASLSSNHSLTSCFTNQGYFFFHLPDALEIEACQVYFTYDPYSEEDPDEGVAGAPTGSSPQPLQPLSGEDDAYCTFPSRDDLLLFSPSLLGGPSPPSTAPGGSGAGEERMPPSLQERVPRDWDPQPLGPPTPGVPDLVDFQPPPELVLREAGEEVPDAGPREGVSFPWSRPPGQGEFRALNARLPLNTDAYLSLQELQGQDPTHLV
Experimental: as §1

[1] = tested on: peripheral blood lymphocytes and eosinophils; assay: Peripheral blood lymphocyte and eosinophil counts (hematology analyzers) in treated Cynos; assay type: in vivo, Cynomolgus macaques; details: ~0.044 mg/kg IV x5 daily
Experimental: (§2) Two studies were conducted to measure the pharmacodynamic effects of either Aldesleukin (Prometheus, National Drug Code 65483011607) (SEQ ID NO:15) 11 or 5 in Cynos. In the first study, four Cynos ranging in weight from 7.77-10.6 kg (average 9.2 kg) were treated intravenously with five sequential daily 0.4 mg doses of 11 on days 1-5 (average mg/kg: 0.044). In the second study, four Cynos ranging in weight from 2.46-3.69 kg (average 3.13 kg) were treated with a single intravenous dose of either 0.1 mg/kg (n=2) or 0.3 mg/kg (n=2) of 5. All animals were chair trained prior to the study. For both studies, peripheral blood samples were taken before and after treatment at various timepoints as indicated and analyzed for lymphocyte counts, eosinophil counts and cytokines. For animals treated with 5, additional flow cytometry experiments were performed. For measurements of (absolute) lymphocyte counts and eosinophil counts, whole blood was processed on hematology analyzers. For IL-5 and IL-6 cytokine measurements, serum was processed from whole blood and analyzed by ELISA or MSD. For flow cytometry measurements (Immunophenotyping, IPT, FACS), Cynomolgus monkey whole blood was collected in EDTA anticoagulant and kept at room temperature until processed for flow cytometry. Blood was lysed and samples were stained for extracellular surface markers and intracellular phenotypic and lineage markers by standard methods. Cell populations were analyzed using the following phenotypes and gated for percentage of cells which were positive for proliferation marker Ki67.

IL-6 = assay: Serum IL-6 cytokine levels (ELISA or MSD) in treated Cynos; assay type: in vivo, Cynomolgus macaques; details: ~0.044 mg/kg IV x5 daily
Experimental: as §2

[2] = tested on: pSTAT5 in Tregs, CD8+ T cells, NK cells; assay: pSTAT5 in lymphocyte subsets of mouse blood (flow cytometry); assay type: cell-based
Experimental: [The source words this procedure for another organism and says it was used here with some conditions changed.] To evaluate the cell type specific immunostimulatory effects of 3 in primary human or monkey cells, whole human or cynomolgus monkey blood from two donors each was incubated with various concentrations of 3 or 13 for 30 minutes and analyzed by flow cytometry for intracellular levels of phosphorylated STAT5 (pSTAT5) in unique cell subsets such as Tregs which predominately express IL-2Rα/β/γ as well as CD8+ T cells (CD8) and NK cells which predominately express IL-2Rβ/γ. Additionally, CD8^+ T cells were further analyzed for CD8^+ CD45RA^+ Naïve (CD8 N) as well as CD8^+ CD45RA^− Memory (CD8 M) subsets. […] All subsets were analyzed for median fluorescence intensities of pSTAT5 and EC50 values were calculated for each compound across all cell types.

[3] = tested on: pSTAT5 in Tregs, CD8+ T cells, NK cells; assay: pSTAT5 in lymphocyte subsets of whole human blood (flow cytometry); assay type: cell-based
Experimental: (§3) To evaluate the cell type specific immunostimulatory effects of 3 in primary human or monkey cells, whole human or cynomolgus monkey blood from two donors each was incubated with various concentrations of 3 or 13 for 30 minutes and analyzed by flow cytometry for intracellular levels of phosphorylated STAT5 (pSTAT5) in unique cell subsets such as Tregs which predominately express IL-2Rα/β/γ as well as CD8+ T cells (CD8) and NK cells which predominately express IL-2Rβ/γ. Additionally, CD8^+ T cells were further analyzed for CD8^+ CD45RA^+ Naïve (CD8 N) as well as CD8^+ CD45RA^− Memory (CD8 M) subsets. Similar experiments were performed with mouse blood using a different panel of mouse specific antibodies. All subsets were analyzed for median fluorescence intensities of pSTAT5 and EC50 values were calculated for each compound across all cell types.

[4] = tested on: pSTAT5 in Tregs, CD8+ T cells, NK cells; assay: pSTAT5 in lymphocyte subsets of whole cynomolgus monkey blood (flow cytometry); assay type: cell-based
Experimental: as §3

11: Aldesleukin, recombinant human Interleukin-2 (SEQ ID NO:15) [Compound 11]
average serum peak IL-5 levels (IL-5): 117.78 pg/mL
IL-5 (IL-5; Study Day -3): 0.28 pg/mL and 0.1895 pg/mL and 0.2445 pg/mL and 0.233 pg/mL
KD for IL-2Rα compared with 12 (human IL-2Rα): highly comparable KD values
KD for IL-2Rβ compared with 12 (human IL-2Rβ; independent measurement): highly comparable KD values
average fold increase in eosinophil counts ([1]; Day 8): 6.92 fold
average fold increase in lymphocyte counts ([1]; Day 8): 2.77 fold
average fold increase in eosinophil counts ([1]; Day 10): 5.94 fold
average fold increase in lymphocyte counts ([1]; Day 10): 2.79 fold
Lymphocyte Counts ([1]; Study Day 1): 4995 µL⁻¹ and 4670.6 µL⁻¹ and 4845 µL⁻¹ and 4617.6 µL⁻¹
Lymphocyte Counts ([1]; Study Day 4): 3739.1 µL⁻¹ and 2646 µL⁻¹ and 2703.2 µL⁻¹ and 3034 µL⁻¹
Lymphocyte Counts ([1]; Study Day 5): 4144.5 µL⁻¹ and 3990 µL⁻¹ and 3784 µL⁻¹
Lymphocyte Counts ([1]; Study Day 8): 11186 µL⁻¹ and 11088 µL⁻¹ and 8086 µL⁻¹ and 14958 µL⁻¹
Lymphocyte Counts ([1]; Study Day 9): 10260 µL⁻¹ and 10045 µL⁻¹ and 9548 µL⁻¹ and 13878 µL⁻¹
Lymphocyte Counts ([1]; Study Day 10): 8316 µL⁻¹ and 10664 µL⁻¹ and 12079 µL⁻¹ and 14885 µL⁻¹
Lymphocyte Counts ([1]; Study Day 11): 7304 µL⁻¹ and 9640 µL⁻¹ and 8736 µL⁻¹ and 7720 µL⁻¹
Lymphocyte Counts ([1]; Study Day 12): 5652 µL⁻¹ and 9520 µL⁻¹ and 8325 µL⁻¹ and 7518 µL⁻¹
Lymphocyte Counts ([1]; Study Day 15): 6720 µL⁻¹ and 9700 µL⁻¹ and 5468.3 µL⁻¹ and 6198.4 µL⁻¹
Lymphocyte Counts ([1]; Study Day 19): 2385.6 µL⁻¹ and 3965.5 µL⁻¹ and 2067 µL⁻¹ and 3139.5 µL⁻¹
Lymphocyte Counts ([1]; Study Day -4 (Baseline)): 4032 µL⁻¹ and 4514.4 µL⁻¹ and 4189.5 µL⁻¹ and 3564 µL⁻¹
Lymphocyte Counts ([1]; Study Day -5 (Baseline)): 4074 µL⁻¹ and 3530.6 µL⁻¹ and 4719 µL⁻¹ and 4376.3 µL⁻¹
average serum peak IL-6 levels (IL-6): 58.66 pg/mL
IL-6 (IL-6; Study Day 2.25): 6.79 pg/mL and 9.02 pg/mL and 7.69 pg/mL and 9.95 pg/mL
IL-6 (IL-6; Study Day 5): 0.75 pg/mL and 0.81 pg/mL and 0.46 pg/mL and 0.48 pg/mL
IL-6 (IL-6; Study Day 5.25): 3.67 pg/mL and 3.59 pg/mL and 2.42 pg/mL and 4.21 pg/mL

12: unbiased control recombinant human IL-2 (SEQ ID NO:45) [Compound 12]
Kd (human IL-2Rβ; Biacore): ~500 nM

13: his-tagged mammalian expressed control human IL-2 (SEQ ID NO:46) [Compound 13]
Fold Potency Loss vs Human, CD8 ([2]; mouse CD8 vs human CD8, pSTAT5 EC50): 935.79
Fold Potency Loss vs Human, NK ([2]; mouse NK vs human NK, pSTAT5 EC50): 1613.10
Fold Potency Loss vs Human, Treg ([2]; mouse Treg vs human Treg, pSTAT5 EC50): 4.11
EC50 for pSTAT5 in NK cells ([2]; mouse blood): 9,694.74 ng/ml
EC50 for pSTAT5 in Tregs ([2]; mouse blood): 0.37 ng/ml
pSTAT5 EC50, CD8 ([2]; mouse blood, CD8+ T cells): 24,040.56 ng/mL
pSTAT5 EC50, CD8 ([3]; additional human blood experiments (Table 29), CD8): 4.94 ng/mL
pSTAT5 EC50, NK ([3]; additional human blood experiments (Table 29), NK): 17.59 ng/mL
pSTAT5 EC50, Treg ([3]; additional human blood experiments (Table 29), Treg): 0.047 ng/mL
EC50 for pSTAT5 in NK cells ([3]; human blood, 30 minutes): 6.01 ng/ml
EC50 for pSTAT5 in Tregs ([3]; human blood, 30 minutes): 0.09 ng/ml
pSTAT5 EC50, CD8 ([3]; whole human blood, 30 minutes, CD8+ T cells (Table 27)): 25.69 ng/mL
Fold Potency Loss vs Human, Treg ([4]; cynomolgus monkey Treg vs human Treg, pSTAT5 EC50): 1
pSTAT5 EC50, Treg ([4]; whole cynomolgus monkey blood, 30 minutes, Treg): 0.09 ng/mL
